Values of other authors as cited in patent publication US20230111210A1, “COCRYSTAL ANTIOXIDANTS OF PROTOCATECHUIC ACID WITH L-THEANINE FOR THE TREATMENT OF OXIDATIVE STRESS AND INFLAMMATORY CONDITIONS” (priority 2020, published 2023).
Converted amounts (≈) assume the structure as drawn.

Legend:
[1] = test system: rats; details: rat, in vivo
[2] = not given; remark: listed apart in the source
[3] = test system: AMPA (α-amino-3-hydroxy-5-methyl-4-isoxazolepropionic acid) receptors
[4] = test system: Kainate receptors
[5] = test system: NMDA (N-methyl-D-Aspartate) receptors
[6] = test system: rabbits; details: rabbit, in vivo

CCNC(=O)CC[C@H](N)C(=O)O [L-theanine, N-ethyl-L-glutamine]
LD50 [1]: greater than 5000 mg/kg
pKa: 2.35
solubility in water (in words) [2]: soluble in water
affinity for AMPA receptors [3]: micromolar affinities
affinity for Kainate receptors [4]: micromolar affinities
affinity for NMDA receptors [5]: micromolar affinities

O=C(O)c1ccc(O)c(O)c1 [Protocatechuic acid, 3,4-dihydroxybenzoic acid]
oral LD50 [6]: greater than 3000 mg/kg
pKa: 4.26
solubility in water [2]: 18.2 mg/mL (≈ 118 mM)
